From US9840464B2, “IAP binding compounds” (TetraLogic Birinapant UK Ltd., priority 2004, dated 2017)
Where a name gives a salt, the structure may show the parent alone.

target: XIAP-BIR3 (Homo sapiens, UniProt P98170); test: XIAP BIR3 fluorescence polarization binding assay (competition with AbuRPF-K(5-Fam)-NH2); settings: 5 nM AbuRPF-K(5-Fam)-NH2, 40 nM XIAP-BIR3, pH 7.5; Kd calculated from measured IC50; read-out: KD Range
Method: Binding constants (Kd) were measured using fluorescence polarization as described by Zaneta Nikolovska-Coleska, Renxiao Wang, Xueliang Fang, Hongguang Pan, York Tomita, Peng Li, Peter P. Roller, Krzysztof Krajewski, Naoyuki Saito, Jeanne Stuckey and Shaomeng Wang, in “Development and Optimization of a Binding Assay for the XIAP BIR3 Domain Using Fluorescence Polarization”, Analytical Biochemistry 2004, 332, 261-273). Briefly, test IAP binding compounds at various concentrations for binding measurements were mixed with 5 nM fluorescently labeled peptide (AbuRPF-K(5-Fam)-NH2) and 40 nM of XIAP-BIR3 for 15 minutes at room temperature in 100 μL of 0.1M Potassium Phosphate buffer, pH 7.5 containing 100 μg/ml bovine γ-globulin. Following incubation, the polarization values (mP) were measured on a Victor^2V using a 485 nm excitation filter and a 520 nm emission filter. IC50 values were determined from the plot using nonlinear least-squares analysis using GraphPad Prism. The Kd values of competitive inhibitors were calculated using the equation described by Zaneta Nikolovska-Coleska et al. based upon the measured IC50 values, the Kd value of the probe and XIAP BIR3 complex, and the concentrations of the protein and probe in the competition assay. In various examples of IAP binding or IAP binding cargo molecules ranges for Kd values: Group A: Kd<0.1 μM; Group B: Kd=0.1-1 μM; Group C: Kd=1-10 μM; Group D: Kd>10 μM.

XIAP-BIR3, sequence (P98170 241-356 limits assumed): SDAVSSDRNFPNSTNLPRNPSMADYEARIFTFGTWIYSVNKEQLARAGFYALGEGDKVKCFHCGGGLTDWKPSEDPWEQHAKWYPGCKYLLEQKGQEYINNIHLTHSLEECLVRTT

Row | Compound | Kd [nM]
1 | 2-Amino-N-{2-methyl-1-[2-(5-pyridin-2-yl-benzofuran-3-ylmethyl)-pyrrolidine-1-carbonyl]-propyl}-propionamide [Entry 8-79] | 1000 to 10000
2 | CC(N)C(=O)NC(C(=O)N1CCCC1CCCOc1ccccc1-c1ccccc1)C(C)C (single isomer, unassigned) [Entry 4-36] | > 10000
3 | CC(C)[C@H](NC(=O)[C@H](C)N)C(=O)N1C[C@@H](Oc2ccccc2)C[C@H]1COc1ccccc1 [Entry 2-1, 2S-Amino-N-[2-methyl-1S-(4S-phenoxy-2S-phenoxymethyl-pyrrolidine-1-carbonyl)-propyl]-propionamide hydrochloride] | 100 to 1000
4 | CN[C@@H](C)C(=O)N[C@H](C(=O)N1C[C@@H](Oc2ccccc2)C[C@H]1COc1ccccc1)C(C)C [Entry 2-2] | 100 to 1000
5 | CC(N)C(=O)NC(C(=O)N1CCCC1COc1ccccc1)C(C)C (centres unmarked) [Entry 2-3] | 100 to 1000
6 | CNC(C)C(=O)NC(C(=O)N1CCCC1COc1ccccc1-c1ccccc1)C(C)C (centres unmarked) [Entry 2-5] | 100 to 1000
7 | CC(N)C(=O)NC(C(=O)N1CCCC1COc1ccccc1-c1ccccc1)C(C)C (centres unmarked) [Entry 2-6] | 100 to 1000
8 | C#CCOC(C)[C@H](NC(=O)[C@H](C)N)C(=O)N1C[C@@H](Oc2ccccc2)C[C@H]1COc1ccccc1 (some centres unmarked) [Entry 2-7] | < 100
9 | CC(C)[C@H](NC(=O)[C@H](C)N)C(=O)N1C[C@@H](Oc2ccccc2)C[C@H]1/C=C/COc1ccccc1 [Entry 3-8] | 100 to 1000
10 | CC(C)[C@H](NC(=O)[C@H](C)N)C(=O)N1C[C@@H](Oc2ccccc2)C[C@H]1/C=C/COc1ccccc1Br [Entry 3-9] | 100 to 1000
11 | CC(C)[C@H](NC(=O)[C@H](C)N)C(=O)N1C[C@@H](Oc2ccccc2)C[C@H]1/C=C/COc1cccc(Cl)c1Cl [Entry 3-10] | 100 to 1000
12 | CC(C)[C@H](NC(=O)[C@H](C)N)C(=O)N1C[C@@H](Oc2ccccc2)C[C@H]1/C=C/COc1ccc(Cl)cc1Cl [Entry 3-11] | 100 to 1000
13 | CCc1ccccc1OC/C=C/[C@@H]1C[C@H](Oc2ccccc2)CN1C(=O)[C@@H](NC(=O)[C@H](C)N)C(C)C [Entry 3-12, trans-2S-Amino-N-(1S-{2S-[3-(2-ethyl-phenoxy)-propenyl]-4S-phenoxy-pyrrolidine-1-carbonyl}-2-methyl-propyl)-propionamide] | 100 to 1000
14 | CN[C@@H](C)C(=O)N[C@H](C(=O)N1C[C@@H](Oc2ccccc2)C[C@H]1/C=C/COc1cccc(Cl)c1Cl)C(C)C [Entry 3-13] | 100 to 1000
15 | CC(C)[C@H](NC(=O)[C@H](C)N)C(=O)N1C[C@@H](Oc2ccccc2)C[C@H]1/C=C/COc1cccc(Br)c1 [Entry 3-14] | 100 to 1000
16 | CC(C)Oc1ccccc1OC/C=C/[C@@H]1C[C@H](Oc2ccccc2)CN1C(=O)[C@@H](NC(=O)[C@H](C)N)C(C)C [Entry 3-15] | 100 to 1000
17 | CC(C)[C@H](NC(=O)[C@H](C)NC(=O)OC(C)(C)C)C(=O)N1C[C@@H](Oc2ccccc2)C[C@H]1/C=C/COc1ccc2c(c1)CCCC2 [Entry 3-16] | > 10000

Row | Compound | Kd [nM]
18 | COc1ccccc1OC/C=C/[C@@H]1C[C@H](Oc2ccccc2)CN1C(=O)[C@@H](NC(=O)[C@H](C)N)C(C)C [Entry 3-18] | 100 to 1000
19 | COc1ccccc1OC/C=C/[C@@H]1C[C@H](Oc2ccccc2)CN1C(=O)[C@@H](NC(=O)CN)C(C)C [Entry 3-19] | > 10000
20 | CC(C)[C@H](NC(=O)[C@H](C)N)C(=O)N1C[C@@H](Oc2ccccc2)C[C@H]1/C=C/COc1ccccc1-c1ccccc1 [Entry 3-20] | 100 to 1000
21 | Cc1cccc(C)c1OC/C=C/[C@@H]1C[C@H](Oc2ccccc2)CN1C(=O)[C@@H](NC(=O)[C@H](C)N)C(C)C [Entry 3-22] | < 100
22 | CCc1ccccc1OCCC[C@H]1C[C@H](Oc2ccccc2)CN1C(=O)[C@@H](NC(=O)[C@H](C)N)C(C)C [Entry 4-25, 2S-Amino-N-(1S-{2S-[3-(2-ethyl-phenoxy)-propyl]-4S-phenoxy-pyrrolidine-1-carbonyl}-2-methyl-propyl)-propionamide] | 100 to 1000
23 | CCc1ccccc1OCCC[C@@H]1C[C@H](Oc2ccccc2)CN1C(=O)[C@@H](NC(=O)[C@H](C)NC)C(C)C [Entry 4-26] | 100 to 1000
24 | CCc1ccccc1OCCCC1CC(Oc2ccccc2)CN1C(=O)C(NC(=O)CN)C(C)C (centres unmarked) [Entry 4-27] | > 10000
25 | CCc1ccccc1OCCC[C@@H]1C[C@H](Oc2ccccc2)CN1C(=O)[C@@H](NC(=O)[C@H](C)NC)C(C)(C)C [Entry 4-28] | 100 to 1000
26 | CC(C)Oc1ccccc1OCCC[C@@H]1C[C@H](Oc2ccccc2)CN1C(=O)[C@@H](NC(=O)[C@H](C)N)C(C)C [Entry 4-29] | 100 to 1000
27 | CC(C)c1ccccc1OCCC[C@@H]1C[C@H](Oc2ccccc2)CN1C(=O)[C@@H](NC(=O)[C@H](C)N)C(C)C [Entry 4-30] | 100 to 1000
28 | Cc1cccc(C)c1OCCC[C@@H]1C[C@H](Oc2ccccc2)CN1C(=O)[C@@H](NC(=O)[C@H](C)N)C(C)C [Entry 4-31] | 100 to 1000
29 | CC(C)[C@H](NC(=O)[C@H](C)N)C(=O)N1CCC[C@H]1CCCOc1ccccc1-c1ccccc1 [Entry 4-32] | 100 to 1000
30 | CCc1ccccc1OCCCC1CCCN1C(=O)C(NC(=O)C(C)N)C(C)C (centres unmarked) [Entry 4-34] | 1000 to 10000
31 | CC(C)Oc1ccccc1OCCCC1CCCN1C(=O)C(NC(=O)C(C)N)C(C)C (centres unmarked) [Entry 4-35] | 1000 to 10000
32 | CC(N)C(=O)NC(C(=O)N1CCCC1CCCOc1ccccc1)C(C)C (centres unmarked) [Entry 4-37] | 1000 to 10000
33 | Cc1cccc(C)c1OCCCC1CCCN1C(=O)C(NC(=O)C(C)N)C(C)C (centres unmarked) [Entry 4-38] | > 10000
34 | CC(C)[C@H](NC(=O)[C@H](C)N)C(=O)N1CCC[C@H]1Cc1coc2ccccc12 [Entry 5-41, 2S-Amino-N-[1S-(2S-benzofuran-3-ylmethyl-pyrrolidine-1-carbonyl)-2-methyl-propyl]-propionamide] | < 100

Now from value to compound:

Row | Kd [nM] | Compound
35 | 1000 to 10000 | CC(N)C(=O)NC(C(=O)N1CC(Oc2ccccc2)CC1Cc1coc2ccccc12)C(C)C (single isomer, unassigned) [Entry 5-53]
36 | < 100 | CC(C)[C@H](NC(=O)[C@H](C)N)C(=O)N1C[C@@H](Oc2ccccc2)C[C@H]1Cc1coc2ccccc12 [Entry 5-39]
37 | < 100 | C[C@H](N)C(=O)N[C@H](C(=O)N1C[C@@H](Oc2ccccc2)C[C@H]1Cc1coc2ccccc12)C(C)(C)C [Entry 5-40]
38 | < 100 | CN[C@@H](C)C(=O)N[C@H](C(=O)N1C[C@@H](Oc2ccccc2)C[C@H]1Cc1coc2ccccc12)C1CCCCC1 [Entry 5-43]
39 | < 100 | CC[C@H](N)C(=O)N[C@H](C(=O)N1C[C@@H](Oc2ccccc2)C[C@H]1Cc1coc2ccccc12)C(C)C [Entry 5-44]
40 | < 100 | CN[C@@H](C)C(=O)N[C@H](C(=O)N1C[C@@H](Oc2ccccc2)C[C@H]1Cc1coc2ccccc12)C(C)C [Entry 5-45]
41 | > 10000 | CC(C)C(NC(=O)CN)C(=O)N1CCCC1Cc1coc2ccccc12 (centres unmarked) [Entry 5-46]
42 | < 100 | CC(N)C(=O)NC(C(=O)N1CCCC1Cc1coc2ccccc12)C1CCCCC1 (centres unmarked) [Entry 5-47]
43 | 1000 to 10000 | CC(C)C(NC(=O)CN)C(=O)N1CC(Oc2ccccc2)CC1Cc1coc2ccccc12 (centres unmarked) [Entry 5-52]
44 | < 100 | CC[C@H](NC(=O)[C@H](C)N)C(=O)N1C[C@@H](Oc2ccccc2)C[C@H]1Cc1coc2ccccc12 [Entry 5-54]
45 | 100 to 1000 | CC[C@H](NC(=O)[C@@H](N)CC)C(=O)N1C[C@@H](Oc2ccccc2)C[C@H]1Cc1coc2ccccc12 [Entry 5-55]
46 | 100 to 1000 | CC[C@H](N)C(=O)N[C@H](C(=O)N1C[C@@H](Oc2ccccc2)C[C@H]1Cc1coc2ccccc12)C1CCCCC1 [Entry 5-56]
47 | < 100 | CNC(C)C(=O)NC(C(=O)N1CCCC1Cc1coc2ccccc12)C(C)C (centres unmarked) [Entry 5-57]
48 | 100 to 1000 | CCC(N)C(=O)NC(C(=O)N1CCCC1Cc1coc2ccccc12)C(C)C (centres unmarked) [Entry 5-58]
49 | 100 to 1000 | CCC(NC(=O)C(C)N)C(=O)N1CCCC1Cc1coc2ccccc12 (centres unmarked) [Entry 5-59]
50 | < 100 | C#CCOC(C)[C@H](NC(=O)[C@H](C)N)C(=O)N1CCC[C@H]1Cc1coc2ccccc12 (some centres unmarked) [Entry 5-60]
51 | < 100 | CC(N)C(=O)NC(C(=O)N1CCCC1Cc1coc2ccc(Cl)cc12)C(C)C (centres unmarked) [Entry 5-61]
52 | < 100 | CNC(C)C(=O)NC(C(=O)N1CCCC1Cc1coc2ccc(Cl)cc12)C(C)C (centres unmarked) [Entry 5-62]
53 | > 10000 | CC(C)C(NC(=O)C(C)(C)N)C(=O)N1CCCC1Cc1coc2ccccc12 (centres unmarked) [Entry 5-64]
54 | > 10000 | CC(=O)NC(C)C(=O)NC(C(=O)N1CCCC1Cc1coc2ccccc12)C(C)C (centres unmarked) [Entry 5-65]
55 | > 10000 | CC(NC=O)C(=O)NC(C(=O)N1CCCC1Cc1coc2ccccc12)C(C)C (centres unmarked) [Entry 5-67]
56 | 1000 to 10000 | CCNC(C)C(=O)NC(C(=O)N1CCCC1Cc1coc2ccccc12)C(C)C (centres unmarked) [Entry 5-68]
57 | 1000 to 10000 | CC(NCC1CC1)C(=O)NC(C(=O)N1CCCC1Cc1coc2ccccc12)C(C)C (centres unmarked) [Entry 5-70]
58 | > 10000 | CC(C)C(NC(=O)C1CCCN1)C(=O)N1CCCC1Cc1coc2ccccc12 (centres unmarked) [Entry 5-74]
59 | 1000 to 10000 | CC(N)C(=O)NC(C(=O)N1CCCC1Cc1coc2ccc(O)cc12)C(C)C (centres unmarked) [Entry 6-75, 2-Amino-N-{1-[2-(5-hydroxy-benzofuran-3-ylmethyl)-pyrrolidine-1-carbonyl]-2-methyl-propyl}-propionamide]
